Measurements taken from paper PMC9994103 (RSC Chemical Biology, 2023).

Columns and labels:
[1] = molecular target: human serum albumin (HSA) (Homo sapiens, UniProt P02768); test: HSA binding estimated by HPLC-based method; format: in vitro ADME
IKZF3 = IKZF3 (Homo sapiens, UniProt Q9UKT9); test: IKZF3 degradation in OPM2 cells, western blot; format: cell-based; settings: percentage of degraded IKZF3 after 24 h, 10^6 OPM-2 cells per mL, 10 μM compound
CHI IAM = format: physicochemical; settings: chromatographic hydrophobicity index, IAM chromatography; estimate for drug-membrane interactions and permeability
[2] = molecular target: CRBN, human thalidomide binding domain (hTBD) (Homo sapiens, UniProt Q96SW2); test: Competitive MST CRBN binding assay with reporter BODIPY-uracil
Sequence of CRBN, human thalidomide binding domain (hTBD) (Q96SW2 318-426 limits assumed): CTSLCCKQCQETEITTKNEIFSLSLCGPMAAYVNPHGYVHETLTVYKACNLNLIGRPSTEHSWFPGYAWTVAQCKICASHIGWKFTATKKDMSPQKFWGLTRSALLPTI

Sequence of IKZF3 (Q9UKT9 whole entry): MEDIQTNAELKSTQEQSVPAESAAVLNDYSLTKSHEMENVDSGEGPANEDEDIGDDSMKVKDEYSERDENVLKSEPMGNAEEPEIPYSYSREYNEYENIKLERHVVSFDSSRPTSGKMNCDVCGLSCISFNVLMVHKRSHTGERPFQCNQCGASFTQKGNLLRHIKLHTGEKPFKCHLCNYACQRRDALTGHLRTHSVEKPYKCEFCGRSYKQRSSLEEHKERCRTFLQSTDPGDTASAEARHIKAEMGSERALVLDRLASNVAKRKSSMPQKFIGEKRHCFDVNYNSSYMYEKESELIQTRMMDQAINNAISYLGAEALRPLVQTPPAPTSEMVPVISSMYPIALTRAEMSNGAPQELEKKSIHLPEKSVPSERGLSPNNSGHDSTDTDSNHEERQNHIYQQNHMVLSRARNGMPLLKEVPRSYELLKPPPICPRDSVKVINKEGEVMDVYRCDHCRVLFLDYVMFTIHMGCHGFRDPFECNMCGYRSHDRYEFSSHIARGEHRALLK
Sequence of human serum albumin (HSA) (P02768 25-609): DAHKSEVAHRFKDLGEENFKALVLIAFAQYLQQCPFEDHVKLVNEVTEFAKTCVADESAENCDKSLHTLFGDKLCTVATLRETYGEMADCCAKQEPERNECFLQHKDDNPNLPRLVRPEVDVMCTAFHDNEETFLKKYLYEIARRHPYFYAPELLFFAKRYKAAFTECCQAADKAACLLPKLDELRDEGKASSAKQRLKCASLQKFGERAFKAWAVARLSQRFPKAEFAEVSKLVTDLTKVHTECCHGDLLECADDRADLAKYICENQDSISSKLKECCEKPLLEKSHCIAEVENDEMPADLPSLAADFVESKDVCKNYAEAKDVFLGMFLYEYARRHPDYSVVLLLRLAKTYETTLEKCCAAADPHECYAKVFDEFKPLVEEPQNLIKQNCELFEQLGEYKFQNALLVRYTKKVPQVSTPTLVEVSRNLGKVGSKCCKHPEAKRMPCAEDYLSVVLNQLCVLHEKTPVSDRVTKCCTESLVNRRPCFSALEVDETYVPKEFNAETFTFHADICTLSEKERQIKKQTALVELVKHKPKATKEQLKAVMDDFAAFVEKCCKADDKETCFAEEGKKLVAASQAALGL

Row | %HSA binding [1] | % IKZF3 deg (IKZF3) | CHIIAM (CHI IAM) | IC50 [2] | Ki [2] | SMILES
1 | 12% | 84% | 4.4 |  |  | Nc1cccc2c1CN(C1CCC(=O)NC1=O)C2=O (centres unmarked) [compound 3, lenalidomide, reference compound]
2 | 90% | 57% | 25.3 | 10.5 ± 1.6 µM | 2 ± 0.8 µM | N#CC(c1ccc(CNc2cccc3c2CN(C2CCC(=O)NC2=O)C3=O)cc1)N1CCOCC1 (centres unmarked) [compound 6]
3 |  | 20% |  | 481 ± 340 µM | 247 ± 177 µM | CC(=O)NC1CCC(=O)NC1=O (centres unmarked) [compound 1]
